From BigSolDB 2.1

Nc1nnc[nH]1
solubility (mole fraction)
Details	in 1,4-dioxane	in 2-butanone	in NMP	in acetone	in acetonitrile	in ethanol	in ethyl acetate	in isopropanol	in methanol	in n-propanol
283.15 K	–	0.00169	0.145	0.00476	0.00061	0.0112	0.00147	0.00423	0.0306	0.0057
285.65 K	–	0.00191	0.152	0.00515	0.000713	0.0126	0.00168	0.00515	0.0329	0.007
288.15 K	0.00325	0.00214	0.159	0.00564	0.000871	0.0143	0.0019	0.00634	0.0353	0.00835
290.65 K	0.0037	0.00242	0.166	0.00617	0.00106	0.0165	0.00213	0.00755	0.038	0.00983
293.15 K	0.00404	0.00272	0.173	0.00672	0.00127	0.0187	0.00237	0.00912	0.0408	0.0116
295.65 K	0.00449	0.00306	0.181	0.00727	0.00153	0.0213	0.00263	0.0111	0.0437	0.0135
298.15 K	0.00506	0.00344	0.189	0.00793	0.00185	0.0239	0.00286	0.0135	0.0471	0.0162
300.65 K	0.00569	0.00386	0.198	0.00869	0.00224	0.0269	0.00313	0.0161	0.0501	0.0189
303.15 K	0.0064	0.00438	0.206	0.0095	0.00273	0.0302	0.00345	0.0191	0.0537	0.022
305.65 K	0.00708	0.00497	0.215	0.0104	0.00327	0.0338	0.00383	0.0217	0.0574	0.0255
308.15 K	0.00785	0.0056	0.225	0.0114	0.00384	0.0378	0.00421	0.0259	0.0613	0.0293
310.65 K	0.00865	0.00626	0.234	0.0123	0.00453	0.042	0.00458	0.0304	0.0654	0.0339
313.15 K	0.00952	0.00698	0.244	0.0133	0.00528	0.0469	0.00503	0.035	0.0701	0.0388
315.65 K	0.0103	0.00768	0.255	0.0142	0.00614	0.0516	0.00549	0.0398	0.0745	0.0448
318.15 K	0.0114	0.00844	0.267	0.0152	0.00698	0.0569	0.00602	0.0453	0.0794	0.0512
